Measured values published in ChEMBL document CHEMBL3045154, “Synthesis and Insecticidal Activity of 1, 3-Dithianes” (1991).

Key:
Type in all cases: functional
[1] = test system: Henosepilachna vigintioctopunctata; assay: Insecticidal activity against third-instar larvae of Henosepilachna vigintioctopunctata assessed as mortality at 100 ppm after 2 days; conditions: 48 h
Tetranychus urticae = assay: Insecticidal activity against Tetranychus urticae (two-spotted spider mite) in kidney bean plant leaf assessed as mortality at 500 ppm after 2 days; conditions: 48 h
Chilo suppressalis = assay: Insecticidal activity against 5th instar larva of Chilo suppressalis assessed as mortality at 50 ug/g after 48 hr

SMILES | mortality at 100 ppm [1] [%] | mortality at 500 ppm (Tetranychus urticae) [%] | mortality (Chilo suppressalis) [%]
CN(C)C1CSC(C(N)=O)(C(N)=O)SC1 | 100 | 60 | 100
CCOC(=O)C1(C(=O)c2ccccc2)SCC(N(C)C)CS1 (stereo unspecified) | 30 | 90 | 100
CNC1CSC(C#N)(c2ccc(Cl)cc2)SC1 (stereo unspecified) | – | 30 | 10
CCOP(=S)(OCC)OC1CSC(C#N)(c2ccc(Cl)cc2)SC1 (stereo unspecified) | – | 40 | 0
CNC(=O)OC1CSC(C#N)(c2ccc(Cl)cc2)SC1 (stereo unspecified) | – | 30 | 0
N#CC1(c2ccc(Cl)cc2)SCC(OC(=O)Nc2ccc(Cl)cc2)CS1 (stereo unspecified) | – | 60 | 0
N#CC1(c2ccc(Cl)cc2)SCCCS1 | – | 0 | 0
CN(C)C1CSC(C#N)(c2ccccc2)SC1 (stereo unspecified) | 30 | 100 | 100
CC(=O)C1(C(C)=O)SCC(N(C)C)CS1 | 70 | 40 | 100
CN(C)C1CSC(C#N)SC1 (stereo unspecified) | 30 | 80 | 100
CN(C)C1CSC(C#N)(c2ccc(Cl)cc2)SC1 (stereo unspecified) | – | 100 | 100
CC1SCC(N(C)C)CS1 (stereo unspecified) | 10 | 30 | 10
CCOC(=O)C1(C(C)=O)SCC(N(C)C)CS1 (stereo unspecified) | 30 | 100 | 100
CC(=O)C1SCC(N(C)C)CS1 (stereo unspecified) | 65 | 100 | 100
CN(C)C1CSC(C#N)(C(N)=O)SC1 (stereo unspecified) | 85 | 100 | 100
CN(C)C1CSC(C#N)(C#N)SC1 | 100 | 90 | 100
CN(C)C1CSC(C(=O)c2ccccc2)(C(=O)c2ccccc2)SC1 | 100 | 80 | 100
CC(=O)C1(C(=O)c2ccccc2)SCC(N(C)C)CS1 (stereo unspecified) | 35 | 80 | 100
C/C(=N\Nc1ccc(Br)cc1)C1SCC(N(C)C)CS1 (stereo unspecified) | 45 | 80 | 100

SMILES | mortality at 100 ppm [1] [%] | mortality at 500 ppm (Tetranychus urticae) [%] | mortality (Chilo suppressalis) [%]
N#CC1(c2ccc(Cl)cc2)SCC(N2CCOCC2)CS1 (stereo unspecified) | – | 90 | 50
CN(C)C1CSC(C(=O)c2ccccc2)SC1 (stereo unspecified) | 80 | 50 | 100
O=C(c1ccccc1)C1(C(=O)c2ccccc2)SCC(O)CS1 | – | 40 | 0
CCN(CC)C(=S)SC1(C#N)SCC(N(C)C)CS1 (stereo unspecified) | 100 | 90 | 100
CN(C)C1CSSC1 [NEREISTOXIN] | – | 30 | 100
N#CC1(C(=O)O)SCCCS1 | – | 0 | 0
CCOP(=O)(OCC)C1(C#N)SCC(N(C)C)CS1 (stereo unspecified) | 5 | 100 | 100
CN(C)C1CSCSC1 | 10 | 20 | 30
N#CC1(c2ccc(Cl)cc2)SCC(N2CCCC2)CS1 (stereo unspecified) | – | 100 | 50
CCCC1(C#N)SCC(N(C)C)CS1 (stereo unspecified) | 30 | 70 | 100
CCOC(=O)C1(C(=O)OCC)SCC(N(C)C)CS1 | 85 | 100 | 100
CNC(=O)C1(C#N)SCC(N(C)C)CS1 (stereo unspecified) | 85 | 100 | 100
CCCCN(CCCC)C1CSC(C#N)(c2ccc(Cl)cc2)SC1 (stereo unspecified) | – | 100 | 50
CC(C)C(C(=O)OC1CSC(C#N)(c2ccc(Cl)cc2)SC1)c1ccc(Cl)cc1 (stereo unspecified) | – | 20 | 0
N#CC1(c2ccc(Cl)cc2)SCC(O)CS1 (stereo unspecified) | – | 30 | 0
CCOC(=O)C1(C#N)SCC(N(C)C)CS1 (stereo unspecified) | 60 | 100 | 100
CCOC(=O)C1SCC(N(C)C)CS1 (stereo unspecified) | 45 | 100 | 80
CCN(CC)C1CSC(C#N)(c2ccc(Cl)cc2)SC1 (stereo unspecified) | – | 100 | 100
